Entries after “also recorded” stand apart in the source; their conditions may differ. Like-named read-outs stand apart in the source and are kept apart here.
Tests used:
[1] = target: T1, MC1-R; assay: Competitive inhibition assay using [I125]-NDP-α-MSH, MC1-R membranes; type: binding, mouse; details: for Inhibition at 1 μM (NDP-α-MSH) MC1-R: 1 μM compound
T1 construct: other: 1 μM compound

[2] = target: T2, hMC3-R; assay: Competitive inhibition assay using [I125]-NDP-α-MSH, hMC3-R membranes; type: binding, human; details: for Ki: read-out: Ki (nM) (NDP-α-MSH) MC3-R
T2 construct: expressed in transfected cells; host or cells: HEK-293
How it was run: (§1)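 Single-concentration displacement (usually 1 μM compound) of 0.2–0.4 nM [125I]-NDP-α-MSH, run 90 min at room temperature in pH 7.2 HEPES containing MgCl2, CaCl2 and KCl. Receptor sources: transfected HEK-293 membranes for human MC3-R/MC4-R/MC5-R, B-16 mouse melanoma membranes for MC1-R. Bound counts normalised to 1 μM α-MSH-defined specific binding; triplicates averaged, values below 0% set to 0%.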

[3] = target: T3, hMC4-R; assay: Competitive inhibition assay using [I125]-NDP-α-MSH, hMC4-R membranes; type: binding, human; details: for attenuation of binding of α-MSH and AgRP to MC4-R: both ligands (NDP-α-MSH and AgRP), summary
T3 construct: expressed in transfected cells; host or cells: HEK-293

[4] = target: T4, hMC5-R; assay: Competitive inhibition assay using [I125]-NDP-α-MSH, hMC5-R membranes; type: binding, human; details: for Ki: read-out: Ki (nM) (NDP-α-MSH) MC5-R
T4 construct: expressed in transfected cells; host or cells: HEK-293
How it was run: as §1

[5] = test system: T3, hMC4-R; type: binding, human; details: for Inhibition at 1 μM (AgRP) MC4-R: 1 μM compound
How it was run: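 Membranes from hMC4-R-expressing cells incubated 1 h at 37 °C with 0.2 nM [I^125]-AgRP (83-132) and increasing compound in 25 mM HEPES pH 7.5, 100 mM NaCl, 2 mM CaCl2, 2 mM MgCl2, 0.3 mM 1,10-phenanthroline, 0.5% BSA. Filtration, gamma counting; specific binding kept ≤10% of added counts.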

[6] = test system: T3, hMC4-R; assay: cAMP functional assay in HEK-293 cells expressing MC4-R (agonist, neutral antagonist/Schild); type: cell-based, human; details: for intrinsic activity at MC4-R: NDP-α-MSH maximal stimulation = 1.0; for functional status at MC4-R: mostly at 1 μM
How it was run: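 Cells in EBSS/HEPES pH 7.5 with 0.3 mM IBMX, exposed to compound (0.05-5000 nM, 1% DMSO) for 1 h at 37 °C; cAMP by EIA, EC50 by nonlinear regression. Antagonism: 30 min compound pre-incubation, then 1 nM NDP-α-MSH for 1 h; Schild analysis over 0.005-5000 nM agonist gives pA2.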

[7] = test system: T5, MC1-R; assay: cAMP functional assay, B-16 mouse melanoma cells expressing MC1-R; type: cell-based; details: cAMP assay at 1 μM
T5 construct: from B-16 mouse melanoma cells (containing MC1-R); endogenous in cells; host or cells: B-16 mouse melanoma cells
Description: (§2) General method for EC50 determination in functional activity assay. Functional evaluation of compounds at melanocortin receptors was performed by measuring the accumulation of intracellular cAMP in HEK-293 cells expressing hMC3-R, hMC4-R or hMC5-R, and in B-16 mouse melanoma cells expressing MC1-R. Cells suspended in Earle's Balanced Salt Solution containing 10 mM HEPES (pH 7.5), 5 mM MgCl2, 1 mM glutamine, 0.1% albumin and 0.6 mM 3-isobutyl-1-methyl-xanthine, a phosphodiesterase inhibitor, were plated in 96 well plates at a density of 0.5×10^5 cells per well. Cells were incubated with the test compounds in the presence or absence of α-MSH for 1 hour at 37° C. cAMP levels in the cell lysates were measured using an EIA kit (Amersham). Data analysis and EC50 values were determined using nonlinear regression analysis with Prism Graph-Pad software.
(§3) Functional status. The agonist/antagonist status with respect to MC1-R, MC-3R, MC4-R and MC5-R of certain compounds of the invention was determined.

[8] = test system: T2, hMC3-R; assay: cAMP functional assay, HEK-293 cells expressing hMC3-R; type: cell-based, human; details: cAMP assay at 1 μM
Description: as §2, §3

[9] = test system: T4, hMC5-R; assay: cAMP functional assay, HEK-293 cells expressing hMC5-R; type: cell-based, human; details: cAMP assay at 1 μM
Description: as §2, §3

[10] = MC4-R membranes, Table 1, read-out: Ki (nM) I125-NPD-α-MSH
[11] = read-out: Ki (nM) (NDP-α-MSH) MC4-R
[12] = MC4-R membranes, Table 1, read-out: Ki (nM) I125-AgRP
[13] = cAMP assay, read-out: EC50 (nM) at MC4-R

Compound | Ki [1] [nM] | Inhibition at 1 μM (NDP-α-MSH) MC1-R [1] [%] | Ki [2] [nM] | Ki [3, 10] [nM] | attenuation of binding of α-MSH and AgRP to MC4-R [3] | Ki [3, 11] [nM] | Ki [4] [nM] | Inhibition at 1 μM (AgRP) MC4-R [5] [%] | Ki [5, 12] [nM] | Ki ([5]; read-out: Ki (nM) (AgRP) MC4-R) | functional status (pAg, Ag, Antag, Inactive) ([6]; MC4-R, Table 1) | EC50 ([6]; MC4-R, Table 1, read-out: EC50) [nM] | intrinsic activity at MC4-R [6] | EC50 [6, 13] [nM] | functional status at MC1-R [7] | functional status at MC3-R [8] | functional status at MC5-R [9] | functional status at MC4-R ([6]; cAMP assay) | other results
C[C@@H]1CN(C(=O)[C@H](N)Cc2ccc3ccccc3c2)[C@@H](CCCNC(=N)N)CN1C(=O)Cc1c[nH]c2ccccc12 [Example 6, N-{3-[1-(2(R)-Amino-3-naphthalen-2-yl-propionyl)-4-(2-1H-indol-3-yl-acetyl)-5(R)-methyl-piperazin-2(S)-yl]-propyl}-guanidine] | 315 | 20 | 1820 | 35 | attenuate the binding of both α-MSH and AgRP to MC4-R | 35 | 1530 | 84 | 83 | 83 | pAg (“pAg” means partial agonist) | > 1000 | 0.2 | > 1000 | no intrinsic activity (intrinsic activity below 0.1 (10%) is classified as inactive or having no intrinsic activity) | no intrinsic activity (intrinsic activity below 0.1 (10%) is classified as inactive or having no intrinsic activity) | partial agonist (intrinsic activity between 0.1 (10%) and 0.7 (70%) is classified as a partial agonist) |  | 
C[C@@H]1CN(C(=O)[C@H](N)Cc2ccc3ccccc3c2)[C@@H](CCCNC(=N)N)CN1C(=O)CCCc1c[nH]c2ccccc12 [Example 7] | 1200 | 0 | 657 | 90 | attenuate the binding of both α-MSH and AgRP to MC4-R | 90 | 271 | 82 | 133 | 133 | pAg (“pAg” means partial agonist) | 3800 | 0.4 | > 3000 | no intrinsic activity (intrinsic activity below 0.1 (10%) is classified as inactive or having no intrinsic activity) | no intrinsic activity (intrinsic activity below 0.1 (10%) is classified as inactive or having no intrinsic activity) | no intrinsic activity (intrinsic activity below 0.1 (10%) is classified as inactive or having no intrinsic activity) |  | 
C[C@@H]1CN(C(=O)[C@H](N)Cc2ccc3ccccc3c2)[C@@H](CCCNC(=N)N)CN1CCc1c[nH]c2ccccc12 [Example 8, N-(3-{1-(2(R)-Amino-3-naphthalen-2-yl-propionyl)-4-[2-(1H-indol-3-yl)-ethyl]-5(R)-methyl-piperazin-2(S)-yl}-propyl)-guanidine] | 162 | 2 | 2120 | 37 | attenuate the binding of both α-MSH and AgRP to MC4-R | 37 | 808 | 89 | 56 | 56 | Ag | > 1000 | 0.9 | > 100 | no intrinsic activity (intrinsic activity below 0.1 (10%) is classified as inactive or having no intrinsic activity) | no intrinsic activity (intrinsic activity below 0.1 (10%) is classified as inactive or having no intrinsic activity) | no intrinsic activity (intrinsic activity below 0.1 (10%) is classified as inactive or having no intrinsic activity) | full agonist | Inhibition at 1 μM (NDP-α-MSH) MC3-R ([2]; 1 μM compound): 27%; Inhibition at 1 μM (NDP-α-MSH) MC4-R ([3]; 1 μM compound): 93%; Inhibition at 1 μM (NDP-α-MSH) MC5-R ([4]; 1 μM compound): 51%
Cc1[nH]c2ccccc2c1CCN1C[C@H](CCCNC(=N)N)N(C(=O)[C@H](N)Cc2ccc3ccccc3c2)C[C@H]1C [Example 9, N-(3-{1-(2(R)-Amino-3-naphthalen-2-yl-propionyl)-5(R)-methyl-4-[2-(2-methyl-1H-indol-3-yl)-ethyl]-piperazin-2(S)-yl}-propyl)-guanidine] | 148 | 73 | 451 | 26 | attenuate the binding of both α-MSH and AgRP to MC4-R | 26 | 293 | 92 | 35 | 35 | Ag | 384 | 0.9 | > 384 | partial agonist (intrinsic activity between 0.1 (10%) and 0.7 (70%) is classified as a partial agonist) | no intrinsic activity (intrinsic activity below 0.1 (10%) is classified as inactive or having no intrinsic activity) | agonist (intrinsic activity of 0.7 (70%) or higher is classified as an agonist) | agonist (intrinsic activity of 0.7 (70%) or higher is classified as an agonist) | 
Cc1cc(Cl)ccc1C[C@@H](N)C(=O)N1C[C@@H](C)N(CCc2c[nH]c3ccccc23)C[C@@H]1CCCNC(=N)N [Example 10, N-(3-{1-(2(R)-Amino-(4-chloro-2-methyl-phenyl)-propionyl)-5(R)-methyl-4-[2-(1H-indol-3-yl)-ethyl]-piperazin-2(S)-yl}-propyl)-guanidine] | 1730 | 40 | 177 | 5 | attenuate the binding of both α-MSH and AgRP to MC4-R | 5 | 360 | 97 | 5 | 5 | pAg (“pAg” means partial agonist) | 7 | 1 | > 7 | no intrinsic activity (intrinsic activity below 0.1 (10%) is classified as inactive or having no intrinsic activity) | no intrinsic activity (intrinsic activity below 0.1 (10%) is classified as inactive or having no intrinsic activity) | no intrinsic activity (intrinsic activity below 0.1 (10%) is classified as inactive or having no intrinsic activity) | partial agonists; also recorded: full agonist | 
Cc1cc(Cl)ccc1C[C@@H](N)C(=O)N1C[C@@H](C)N(C(=O)Cc2ccc3ccccc3c2)C[C@@H]1CCCNC(=N)N [Example 11, N-{3-[1-[2(R)-amino-3-(4-chloro-2-dimethyl-phenyl)-propionyl]-5(R)-methyl-4-(2-naphthalen-2-yl-acetyl)-piperazin-2(S)-yl]-propyl}-guanidine] | 462 | 3 | 398 | 3 | attenuate the binding of both α-MSH and AgRP to MC4-R | 3 | 774 | 89 | 27 | 27 | Ag | 18 | 0.9 | 18 | partial agonist (intrinsic activity between 0.1 (10%) and 0.7 (70%) is classified as a partial agonist) | partial agonist (intrinsic activity between 0.1 (10%) and 0.7 (70%) is classified as a partial agonist) | agonist (intrinsic activity of 0.7 (70%) or higher is classified as an agonist) | agonist (intrinsic activity of 0.7 (70%) or higher is classified as an agonist) | 

Reference: patent publication US20090076029A1 (Palatin Technologies, Inc., priority 2007, published 2009)
